Measured values published in patent US20120178915A1, “PYRIMIDINE DERIVATIVES AND ANALOGS, PREPARATION METHOD AND USE THEREOF” (priority 2009, published 2012).
In brackets after ≈: the same amount, converted by molar mass. Like-named read-outs stand apart in the source and are kept apart here.

Experiments:
[1] = system: Bacillus subtilis 168; test: microbe, parasite or virus in culture; assay type: cell-based; conditions: 37° C., 24 h, read-out: Minimum Inhibitory Concentration, MIC
[2] = system: Bacillus cereus 2; test: microbe, parasite or virus in culture; assay type: cell-based; conditions: 37° C., 24 h, read-out: Minimum Inhibitory Concentration, MIC
[3] = system: Enterococcus faecalis 1513 (VRE); test: microbe, parasite or virus in culture; assay type: cell-based; conditions: 24 h, read-out: Minimum Inhibitory Concentration, MIC
[4] = system: Bacillus anthracis 1; test: microbe, parasite or virus in culture; assay type: cell-based; conditions: Bacillus anthracis, 1, 24 h, read-out: Minimum Inhibitory Concentration, MIC
[5] = system: Enterococcus faecalis 51299; test: microbe, parasite or virus in culture; assay type: cell-based; conditions: Enterococcus faecalis, 51299, 24 h, read-out: Minimum Inhibitory Concentration, MIC
[6] = system: Enterococcus fecal F631 (VRE); test: organism not typed; assay type: cell-based; conditions: 24 h, read-out: Minimum Inhibitory Concentration, MIC
[7] = system: Staphylococcus aureus 703 (MRSA); test: microbe, parasite or virus in culture; assay type: cell-based; conditions: 24 h, read-out: Minimum Inhibitory Concentration, MIC
[8] = system: Pyogenic Streptococcus; test: microbe, parasite or virus in culture; assay type: cell-based; conditions: 37° C., 24 h, read-out: Minimum Inhibitory Concentration, MIC
[9] = system: Streptococcus bovis 10035; test: microbe, parasite or virus in culture; assay type: cell-based; conditions: Streptococcus equinus, 37° C., 24 h, read-out: Minimum Inhibitory Concentration, MIC
[10] = system: Corynebacterium diphtheriae; test: microbe, parasite or virus in culture; assay type: cell-based; conditions: 37° C., 24 h, read-out: Minimum Inhibitory Concentration, MIC
[11] = system: Streptococcus pneumoniae 6301; test: microbe, parasite or virus in culture; assay type: cell-based; conditions: 37° C., 24 h, read-out: Minimum Inhibitory Concentration, MIC
[12] = system: Bacillus cereus 246; test: microbe, parasite or virus in culture; assay type: cell-based; conditions: 37° C., 24 h, read-out: Minimum Inhibitory Concentration, MIC
[13] = MIC broth microdilution; assay type: cell-based; conditions: Microorganism 33, Dermatophytosis; 37° C., 24 h; read-out: Minimum Inhibitory Concentration, MIC
[14] = system: Staphylococcus aureus 705 (MRSA); test: microbe, parasite or virus in culture; assay type: cell-based; conditions: 24 h, read-out: Minimum Inhibitory Concentration, MIC
[15] = system: Clostridium tetani; test: microbe, parasite or virus in culture; assay type: cell-based; conditions: 24 h
[16] = system: Staphylococcus aureus 43300 (MRSA); test: microbe, parasite or virus in culture; assay type: cell-based; conditions: 24 h, read-out: Minimum Inhibitory Concentration, MIC
[17] = system: Enterococcus faecalis F2518 (VRE); test: microbe, parasite or virus in culture; assay type: cell-based; conditions: 24 h, read-out: Minimum Inhibitory Concentration, MIC
[18] = system: green Streptococcus 1009; test: microbe, parasite or virus in culture; assay type: cell-based; conditions: 37° C., 24 h, read-out: Minimum Inhibitory Concentration, MIC
[19] = system: Clostridium perfringens; test: microbe, parasite or virus in culture; assay type: cell-based; conditions: 24 h, read-out: Minimum Inhibitory Concentration, MIC
[20] = system: Staphylococcus aureus 704 (MRSA); test: microbe, parasite or virus in culture; assay type: cell-based; conditions: 24 h, read-out: Minimum Inhibitory Concentration, MIC
[21] = system: Streptococcus agalactiae B; test: microbe, parasite or virus in culture; assay type: cell-based; conditions: 37° C., 24 h, read-out: Minimum Inhibitory Concentration, MIC
[22] = system: Streptococcus 10342; test: MIC broth microdilution; assay type: cell-based; conditions: 37° C., 24 h, read-out: Minimum Inhibitory Concentration, MIC
[23] = system: Gram-positive Bacteria; assay type: cell-based; conditions: Enterococcus faecalis (VRE), Staphylococcus aureus (MRSA), Streptococcus pneumoniae 6303 (PRSP); Bacillus cereus, Bacillus subtilis, Enterococcus faecalis, Staphylococcus aureus, Streptococcus pneumoniae, Streptococcus agalactiae B and streptococci 4
[24] = system: Streptococcus pneumoniae 10351; test: microbe, parasite or virus in culture; assay type: cell-based; conditions: 37° C., 24 h, read-out: Minimum Inhibitory Concentration, MIC
[25] = system: Bacillus subtilis 82; test: microbe, parasite or virus in culture; assay type: cell-based; conditions: 37° C., 24 h, read-out: Minimum Inhibitory Concentration, MIC
[26] = system: Streptococcus pneumoniae 6303 (PRSP); test: microbe, parasite or virus in culture; assay type: cell-based; conditions: 24 h, read-out: Minimum Inhibitory Concentration, MIC
[27] = system: Staphylococcus aureus 29231; test: microbe, parasite or virus in culture; assay type: cell-based; conditions: 37° C., 24 h, read-out: Minimum Inhibitory Concentration, MIC
[28] = system: Enterococcus faecalis 583 (VRE); test: microbe, parasite or virus in culture; assay type: cell-based; conditions: 24 h, read-out: Minimum Inhibitory Concentration, MIC
[29] = system: Enterococcus faecalis 19433; test: microbe, parasite or virus in culture; assay type: cell-based; conditions: 37° C., 24 h, read-out: Minimum Inhibitory Concentration, MIC
[30] = system: Streptococcus pneumoniae M2; test: microbe, parasite or virus in culture; assay type: cell-based; conditions: 37° C., 24 h, read-out: Minimum Inhibitory Concentration, MIC
[31] = system: Enterococcus faecalis 29212; test: microbe, parasite or virus in culture; assay type: cell-based; conditions: 37° C., 24 h, read-out: Minimum Inhibitory Concentration, MIC
[32] = system: MRSA 2152; test: Antibacterial studies in vivo, survival of mice infected with MRSA 2152; conditions: dose mg/kg: ciprofloxacin 20, 3: 30, 7: 40, 21: 50, 33: 25, 70: 70; for Survival rate (%) (life prolongation rate): (survival days of test group − blank group)/blank group ×100%, MRSA 2152 mice, tail vein; for Survival: mice inoculated intraperitoneally with MRSA 2152, test compound by tail vein, repeated after six hours, saline 1.3 days
[33] = system: Streptococcus pneumoniae 62; test: microbe, parasite or virus in culture; assay type: cell-based; conditions: 37° C., 24 h, read-out: Minimum Inhibitory Concentration, MIC
[34] = system: Oral candidiasis; test: MIC broth microdilution; assay type: cell-based; conditions: Microorganism 32, Oral candidiasis; 37° C., 24 h; read-out: Minimum Inhibitory Concentration, MIC
[35] = read-out: Minimum Inhibitory Concentration, MIC, Microorganism 29, Clostridium tetani, 37° C.
[36] = read-out: Minimum Inhibitory Concentration, MIC, Microorganism 30, Clostridium tetani (second line of that name), 37° C.

Cc1c(-c2ccc(C(F)(F)F)cc2)[nH]c2c(-c3ccc(Cl)cc3Cl)c(C3CC3)nn2c1=O [Compound 21]
MIC [1]: 0.46 µM (≈ 0.22 µg/mL) | MIC [2]: 0.36 µM (≈ 0.172 µg/mL) | MIC [3]: 2.3 µM (≈ 1.1 µg/mL) | MIC [4]: 13.5 µM (≈ 6.46 µg/mL) | MIC [5]: 10.5 µM (≈ 5.02 µg/mL) | MIC [6]: 0.33 µM (≈ 0.158 µg/mL) | MIC [7]: 0.42 µM (≈ 0.201 µg/mL) | MIC [8]: 1.23 µM (≈ 0.588 µg/mL) | MIC [9]: 1.25 µM (≈ 0.598 µg/mL) | MIC [10]: 30.3 µM (≈ 14.5 µg/mL) | MIC [11]: 0.23 µM (≈ 0.11 µg/mL) | MIC [12]: 1.55 µM (≈ 0.741 µg/mL) | MIC [13]: 33.7 µM (≈ 16.1 µg/mL) | MIC [14]: 0.3 µM (≈ 0.143 µg/mL) | MIC [15, 35]: 30.2 µM (≈ 14.4 µg/mL) | MIC [15, 36]: 80.3 µM (≈ 38.4 µg/mL) | MIC [16]: 0.35 µM (≈ 0.167 µg/mL) | MIC [17]: 2.5 µM (≈ 1.2 µg/mL) | MIC [18]: 1.55 µM (≈ 0.741 µg/mL) | MIC [19]: 32 µM (≈ 15.3 µg/mL) | MIC [20]: 0.28 µM (≈ 0.134 µg/mL) | MIC [21]: 0.55 µM (≈ 0.263 µg/mL) | MIC [22]: 1.35 µM (≈ 0.646 µg/mL) | inhibition of growth (conclusion from MICs) [23]: significantly inhibited the growth | MIC [24]: 1.25 µM (≈ 0.598 µg/mL) | MIC [25]: 0.68 µM (≈ 0.325 µg/mL) | MIC [26]: 1.33 µM (≈ 0.636 µg/mL) | MIC [27]: 0.6 µM (≈ 0.287 µg/mL) | MIC [28]: 0.11 µM (≈ 0.0526 µg/mL) | MIC [29]: 12.3 µM (≈ 5.88 µg/mL) | MIC [30]: 0.02 µM (≈ 0.00957 µg/mL) | MIC [31]: 0.32 µM (≈ 0.153 µg/mL) | Survival rate (%) (life prolongation rate) [32]: 133.2% | Survival [32]: 3.2 days | MIC [33]: 0.25 µM (≈ 0.12 µg/mL) | MIC [34]: 88.5 µM (≈ 42.3 µg/mL)

Cc1nn2c(=O)cc(-c3ccc(C#N)cc3)[nH]c2c1-c1ccc(C(F)(F)F)cc1 [Compound 3]
MIC [1]: 2.5 µM (≈ 0.986 µg/mL) | MIC [2]: 2.5 µM (≈ 0.986 µg/mL) | MIC [3]: 1.3 µM (≈ 0.513 µg/mL) | MIC [4]: 25.6 µM (≈ 10.1 µg/mL) | MIC [5]: 0.55 µM (≈ 0.217 µg/mL) | MIC [6]: 0.33 µM (≈ 0.13 µg/mL) | MIC [7]: 1.25 µM (≈ 0.493 µg/mL) | MIC [8]: 0.12 µM (≈ 0.0473 µg/mL) | MIC [9]: 2.01 µM (≈ 0.793 µg/mL) | MIC [10]: 62.1 µM (≈ 24.5 µg/mL) | MIC [11]: 0.3 µM (≈ 0.118 µg/mL) | MIC [12]: 0.53 µM (≈ 0.209 µg/mL) | MIC [13]: 59.1 µM (≈ 23.3 µg/mL) | MIC [14]: 0.46 µM (≈ 0.181 µg/mL) | MIC [15, 35]: 50.3 µM (≈ 19.8 µg/mL) | MIC [15, 36]: 23.2 µM (≈ 9.15 µg/mL) | MIC [16]: 0.36 µM (≈ 0.142 µg/mL) | MIC [17]: 0.48 µM (≈ 0.189 µg/mL) | MIC [18]: 0.31 µM (≈ 0.122 µg/mL) | MIC [19]: 55.3 µM (≈ 21.8 µg/mL) | MIC [20]: 0.63 µM (≈ 0.248 µg/mL) | MIC [21]: 0.16 µM (≈ 0.0631 µg/mL) | MIC [22]: 1.33 µM (≈ 0.524 µg/mL) | inhibition of growth (conclusion from MICs) [23]: significantly inhibited the growth | MIC [24]: 1.25 µM (≈ 0.493 µg/mL) | MIC [25]: 5 µM (≈ 1.97 µg/mL) | MIC [26]: 0.32 µM (≈ 0.126 µg/mL) | MIC [27]: 0.22 µM (≈ 0.0868 µg/mL) | MIC [28]: 0.63 µM (≈ 0.248 µg/mL) | MIC [29]: 0.42 µM (≈ 0.166 µg/mL) | MIC [30]: 0.04 µM (≈ 0.0158 µg/mL) | MIC [31]: 0.23 µM (≈ 0.0907 µg/mL) | Survival rate (%) (life prolongation rate) [32]: 216.8% | Survival [32]: 4.3 days | MIC [33]: 10.5 µM (≈ 4.14 µg/mL) | MIC [34]: 53.1 µM (≈ 20.9 µg/mL)
